# From ChEMBL document CHEMBL1140452, “5'-halogenated analogs of oxymorphindole” (Bioorg Med Chem Lett, 2007)
# Activity calls are given as the source filed them. No cut-off for these calls is given here.
# How the values were obtained:
# [1] = tested on: Mus musculus; test: Antinociceptive effect in mouse at 30 mg/kg by tail flick assay; type: functional, organism-based; parameters: dose 30 mg/kg
# [2] = target: T1, Mu-type opioid receptor (Homo sapiens, UniProt P35372); test: Displacement of [3H]DAMGO from mu opioid receptor
# T1 sequence (P35372 whole entry): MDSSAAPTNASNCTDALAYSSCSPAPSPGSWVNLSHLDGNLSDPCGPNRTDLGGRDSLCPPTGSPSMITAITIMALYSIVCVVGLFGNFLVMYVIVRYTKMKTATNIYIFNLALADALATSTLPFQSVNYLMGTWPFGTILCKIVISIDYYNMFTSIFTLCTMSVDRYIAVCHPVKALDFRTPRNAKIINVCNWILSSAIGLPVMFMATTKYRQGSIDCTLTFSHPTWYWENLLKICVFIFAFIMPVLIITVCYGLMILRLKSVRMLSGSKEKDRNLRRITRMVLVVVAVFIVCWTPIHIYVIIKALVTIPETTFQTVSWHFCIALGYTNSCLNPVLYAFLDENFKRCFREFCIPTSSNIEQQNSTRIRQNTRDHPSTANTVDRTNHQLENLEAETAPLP
# [3] = tested on: Mus musculus; test: Antinociceptive effect in mouse at 30 mg/kg by antiwrithing assay; type: functional, organism-based; parameters: dose 30 mg/kg
# [4] = tested on: Mus musculus; test: Antinociceptive effect in mouse at 30 mg/kg by hot plate assay; type: functional, organism-based; parameters: dose 30 mg/kg
# [5] = organism: Homo sapiens; test: Selectivity for delta opioid receptor over mu opioid receptor
# [6] = target: Kappa-type opioid receptor (Homo sapiens, UniProt P41145); test: Displacement of [3H]U-69593 from cloned kappa opioid receptor
# Sequence of Kappa-type opioid receptor (P41145 whole entry): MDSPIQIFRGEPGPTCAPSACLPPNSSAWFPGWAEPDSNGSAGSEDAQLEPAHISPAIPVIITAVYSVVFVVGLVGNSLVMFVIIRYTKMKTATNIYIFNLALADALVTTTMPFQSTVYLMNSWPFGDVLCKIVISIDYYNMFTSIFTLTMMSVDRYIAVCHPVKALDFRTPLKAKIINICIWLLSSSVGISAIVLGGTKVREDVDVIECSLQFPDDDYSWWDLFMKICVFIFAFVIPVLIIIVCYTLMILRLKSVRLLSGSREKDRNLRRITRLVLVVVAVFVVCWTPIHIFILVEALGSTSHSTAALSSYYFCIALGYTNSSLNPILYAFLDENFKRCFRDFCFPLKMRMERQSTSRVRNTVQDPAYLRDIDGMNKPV
# [7] = tested on: Mus musculus; test: Antinociceptive effect in mouse at 30 mg/kg by […]; type: functional, organism-based; parameters: dose 30 mg/kg
# [8] = target: T2, Delta-type opioid receptor (Homo sapiens, UniProt P41143); test: Displacement of [3H]p-Cl-DPDPE from delta opioid receptor
# T2 sequence (P41143 whole entry): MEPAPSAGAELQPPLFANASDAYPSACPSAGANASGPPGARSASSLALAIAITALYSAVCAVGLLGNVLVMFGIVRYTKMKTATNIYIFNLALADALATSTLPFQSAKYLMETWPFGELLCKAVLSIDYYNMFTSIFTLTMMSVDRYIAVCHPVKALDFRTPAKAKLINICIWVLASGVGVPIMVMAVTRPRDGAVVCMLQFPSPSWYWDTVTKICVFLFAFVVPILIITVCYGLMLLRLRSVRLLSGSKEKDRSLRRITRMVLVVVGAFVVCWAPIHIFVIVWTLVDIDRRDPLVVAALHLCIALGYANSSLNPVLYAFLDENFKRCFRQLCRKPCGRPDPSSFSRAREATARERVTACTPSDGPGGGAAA
# [9] = target: T2, Delta-type opioid receptor; test: Activity at delta opioid receptor assessed as stimulation of [35S]GTP-gamma-S binding
# [10] = target: T1, Mu-type opioid receptor; test: Activity at mu opioid receptor assessed as stimulation of [35S]GTP-gamma-S binding; type: functional
Compound,Activity [1],Ki [2] [nM],Activity [3],Activity [4],Ratio Ki [5],Ki [6] [nM],Activity [7],Ki [8] [nM],EC50 [9] [nM],Activity [10] [%],EC50 [10] [nM]
CN1CC[C@]23c4c5ccc(O)c4O[C@H]2c2[nH]c4ccc(Cl)cc4c2C[C@@]3(O)[C@H]1C5,inactive,47,inactive,inactive,9,360,inactive,5.1,,,
CN1CC[C@]23c4c5ccc(O)c4O[C@H]2c2[nH]c4ccccc4c2C[C@@]3(O)[C@H]1C5 [OXYMORPHINDOLE],inactive,105,inactive,inactive,115,,inactive,0.9,,,
CN1CC[C@]23c4c5ccc(O)c4O[C@H]2c2[nH]c4ccc(F)cc4c2C[C@@]3(O)[C@H]1C5,inactive,21,inactive,inactive,9,310,inactive,2.3,16,34,1080
CN1CC[C@]23c4c5ccc(O)c4O[C@H]2c2[nH]c4ccc(I)cc4c2C[C@@]3(O)[C@H]1C5,inactive,66,inactive,inactive,17,160,inactive,3.8,,,
CN1CC[C@]23c4c5ccc(O)c4O[C@H]2c2[nH]c4ccc(Br)cc4c2C[C@@]3(O)[C@H]1C5,inactive,71,inactive,inactive,8,250,inactive,8.6,,,
